19 compounds from patent publication US12448388B2, “PRMT5 inhibitors and uses thereof” (Gilead Sciences, Inc., priority 2023, dated 2025) can be followed below.

The assay has as its system HCT116 MTAP-deleted cell lines. Nature of the assay: Cell viability assay (CellTiter-Glo, 7 days), HCT116 MTAP-deleted. It is filed as cell-based. The conditions noted are these: Homo sapiens, HCT-116, HCT116 MTAP-deleted, class symbols, read-out: CC50. In short, it runs like this: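 CC50 values come from 7-day CellTiter-Glo viability measurements on cells exposed to a dose range of PRMT5 inhibitors dispensed from DMSO stocks.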
Background: In ATP-based viability assays light output follows the ATP content of the culture.

Where two headings read alike, the source gives them in different places. A value given as a limit tells only on which side of the number the result lay.

With `CN(C(=O)c1cc2c(cc1F)nc(N)c1cncn12)[C@@H]1COc2c1ccc(C(F)(F)F)c2F` [Ff-354, (S)-4-amino-7-fluoro-N-(7-fluoro-6-(trifluoromethyl)-2,3-dihydrobenzofuran-3-yl)-N-methylimidazo[1,5-a]quinoxaline-8-carboxamide], where the note is “cell viability”, the CC50 was less than 100 nM.
On the same count and under the same terms, the same measure for `Cc1ncc2c(N)nc3ccc(C(=O)N(C)[C@@H]4COc5c4ccc(C(F)(F)F)c5F)cc3n12` [Ff-355, (S)-4-amino-N-(7-fluoro-6-(trifluoromethyl)-2,3-dihydrobenzofuran-3-yl)-N,1-dimethylimidazo[1,5-a]quinoxaline-8-carboxamide]: 100 to 1000 nM; for `CN(C(=O)c1ccc2nc(N)c3cncn3c2c1)[C@@H]1COc2c1ccc(C(F)(F)F)c2F` [Ff-356, (S)-4-amino-N-(7-fluoro-6-(trifluoromethyl)-2,3-dihydrobenzofuran-3-yl)-N-methylimidazo[1,5-a]quinoxaline-8-carboxamide]: less than 100 nM.
As to `Nc1nc2cc(F)c(C(=O)N3CCC[C@@H]4OCc5nc(C(F)(F)F)ccc5[C@@H]43)cc2n2cncc12` [Ff-357, (4-amino-7-fluoroimidazo[1,5-a]quinoxalin-8-yl)((4aS,10bS)-8-(trifluoromethyl)-2,3,4,4a,6,10b-hexahydro-1H-pyrano[3,2-b:5,4-b′]dipyridin-1-yl)methanone], the half-maximal cytotoxic concentration (CC50) (cell viability) is less than 100 nM.
As for `Cc1ncn2c1c(N)nc1cc(F)c(C(=O)N3CCC[C@@H]4OCc5nc(C(F)(F)F)ccc5[C@@H]43)cc12` [Ff-358, (4-amino-7-fluoro-3-methylimidazo[1,5-a]quinoxalin-8-yl)((4aS,10bS)-8-(trifluoromethyl)-2,3,4,4a,6,10b-hexahydro-1H-pyrano[3,2-b:5,4-b′]dipyridin-1-yl)methanone], the CC50 (cell viability) was less than 100 nM.
As to `Cc1ncc2c(N)nc3cc(F)c(C(=O)N4CCC[C@@H]5OCc6nc(C(F)(F)F)ccc6[C@@H]54)cc3n12` [Ff-359, (4-amino-7-fluoro-1-methylimidazo[1,5-a]quinoxalin-8-yl)((4aS,10bS)-8-(trifluoromethyl)-2,3,4,4a,6,10b-hexahydro-1H-pyrano[3,2-b:5,4-b′]dipyridin-1-yl)methanone], under “cell viability”, the 50% cytotoxic concentration (CC50) was less than 100 nM.
On to `Cc1ncn2c1c(N)nc1cc(Cl)c(C(=O)N3CCC[C@@H]4OCc5nc(C(F)(F)F)ccc5[C@@H]43)cc12` [Ff-360, (4-amino-7-chloro-3-methylimidazo[1,5-a]quinoxalin-8-yl)((4aS,10bS)-8-(trifluoromethyl)-2,3,4,4a,6,10b-hexahydro-1H-pyrano[3,2-b:5,4-b′]dipyridin-1-yl)methanone], for which the CC50 (cell viability) is less than 100 nM.
As for `Nc1nc2cc(F)c(C(=O)N3CCC[C@@H]4Oc5nc(C(F)(F)F)ccc5[C@@H]43)cc2n2cncc12` [Ff-361, (4-amino-7-fluoroimidazo[1,5-a]quinoxalin-8-yl)((4aS,9bS)-7-(trifluoromethyl)-3,4,4a,9b-tetrahydrofuro[2,3-b:4,5-b′]dipyridin-1(2H)-yl)methanone], the 50% cytotoxic concentration (CC50) (cell viability) is less than 100 nM.
Take `Cc1ncn2c1c(N)nc1cc(F)c(C(=O)N3CCC[C@@H]4Oc5nc(C(F)(F)F)ccc5[C@@H]43)cc12` [Ff-362, (4-amino-7-fluoro-3-methylimidazo[1,5-a]quinoxalin-8-yl)((4aS,9bS)-7-(trifluoromethyl)-3,4,4a,9b-tetrahydrofuro[2,3-b:4,5-b′]dipyridin-1(2H)-yl)methanone]: where the note is “cell viability”, the CC50 is less than 100 nM.
Turning to `Cc1ncn2c1c(N)nc1cc(Cl)c(C(=O)N3CCC[C@@H]4Oc5nc(C(F)(F)F)ccc5[C@@H]43)cc12` [Ff-364, (4-amino-7-chloro-3-methylimidazo[1,5-a]quinoxalin-8-yl)((4aS,9bS)-7-(trifluoromethyl)-3,4,4a,9b-tetrahydrofuro[2,3-b:4,5-b′]dipyridin-1(2H)-yl)methanone], the CC50 (cell viability) was less than 100 nM.
Consider `Nc1nc2cc(F)c(C(=O)N3CC[C@H]4C[C@@H]3c3ccc(C(F)(F)F)cc3O4)cc2n2cncc12` [Ff-365, (4-amino-7-fluoroimidazo[1,5-a]quinoxalin-8-yl)((2S,6R)-9-(trifluoromethyl)-3,4-dihydro-2H-2,6-methanobenzo[b][1,5]oxazocin-5(6H)-yl)methanone], for which the 50% cytotoxic concentration (CC50) (cell viability) was less than 100 nM.
Take `Cc1ncc2c(N)nc3cnc(C(=O)N4CC[C@H]5C[C@@H]4c4ccc(C(F)(F)F)cc4O5)cc3n12` [Ff-369, (4-amino-1-methylimidazo[1,5-a]pyrido[3,4-e]pyrazin-8-yl)((2S,6R)-9-(trifluoromethyl)-3,4-dihydro-2H-2,6-methanobenzo[b][1,5]oxazocin-5(6H)-yl)methanone]: the 50% cytotoxic concentration (CC50) (cell viability assay) was less than 100 nM.
Regarding `Nc1nc2cc(Cl)c(C(=O)N3CC[C@H]4C[C@@H]3c3ccc(C(F)(F)F)cc3O4)cc2n2cncc12` [Ff-370, (4-amino-7-chloroimidazo[1,5-a]quinoxalin-8-yl)((2S,6R)-9-(trifluoromethyl)-3,4-dihydro-2H-2,6-methanobenzo[b][1,5]oxazocin-5(6H)-yl)methanone], the CC50 (cell viability assay) is less than 100 nM.
With `Nc1nc2cc(Cl)c(C(=O)N3CC[C@H]4C[C@@H]3c3ccc(C(F)(F)F)nc3O4)cc2n2cncc12` [Ff-371, (4-amino-7-chloroimidazo[1,5-a]quinoxalin-8-yl)((2S,6R)-9-(trifluoromethyl)-3,4-dihydro-2H-2,6-methanopyrido[2,3-b][1,5]oxazocin-5(6H)-yl)methanone], the CC50 (cell viability assay) is less than 100 nM.
Same read-out and setting: the same measure for `Cc1ncn2c1c(N)nc1cc(F)c(C(=O)N3C[C@H](C)C[C@@H]4Oc5nc(C(F)(F)F)ccc5[C@@H]43)cc12` [Ff-374, (4-amino-7-fluoro-3-methylimidazo[1,5-a]quinoxalin-8-yl)((3R,4aS,9bS)-3-methyl-7-(trifluoromethyl)-3,4,4a,9b-tetrahydrofuro[2,3-b:4,5-b′]dipyridin-1(2H)-yl)methanone]: less than 100 nM; for `C[C@@H]1C[C@@H]2Oc3nc(C(F)(F)F)ccc3[C@@H]2N(C(=O)c2cc3c(cc2F)nc(N)c2cncn23)C1` [Ff-375, (4-amino-7-fluoroimidazo[1,5-a]quinoxalin-8-yl)((3R,4aS,9bS)-3-methyl-7-(trifluoromethyl)-3,4,4a,9b-tetrahydrofuro[2,3-b:4,5-b′]dipyridin-1(2H)-yl)methanone]: less than 100 nM; for `Cc1ncc2c(N)nc3cnc(C(=O)N4CCC[C@@H]5Oc6cc(OC(F)(F)F)c(F)cc6[C@@H]54)cc3n12` [Ff-376, (4-amino-1-methylimidazo[1,5-a]pyrido[3,4-e]pyrazin-8-yl)((4aS,9bS)-8-fluoro-7-(trifluoromethoxy)-3,4,4a,9b-tetrahydrobenzofuro[3,2-b]pyridin-1(2H)-yl)methanone]: less than 100 nM.
In the case of `Nc1nc2ccc(C(=O)N3CCC[C@@H]4Oc5cc(OC(F)(F)F)c(F)cc5[C@@H]43)cc2n2cncc12` [Ff-377, (4-aminoimidazo[1,5-a]quinoxalin-8-yl)((4aS,9bS)-8-fluoro-7-(trifluoromethoxy)-3,4,4a,9b-tetrahydrobenzofuro[3,2-b]pyridin-1(2H)-yl)methanone], the CC50 (cell viability assay) was less than 100 nM.
On the same count and under the same terms, under `CC1(C)CN(C(=O)c2cc3c(cc2F)nc(N)c2cncn23)[C@H]2c3ccc(C(F)(F)F)cc3C[C@H]2O1` [Ff-380, (4-amino-7-fluoroimidazo[1,5-a]quinoxalin-8-yl)((4aS,9aR)-2,2-dimethyl-7-(trifluoromethyl)-2,3,9,9a-tetrahydroindeno[2,1-b][1,4]oxazin-4(4aH)-yl)methanone] stands less than 100 nM.

One may read the CC50 as the concentration at which the toxic effect on the cells reaches its halfway point.
